For nine compounds, GI50 and TGI results are on record in PubChem BioAssay (NCI).

Among the test systems are UO-31 renal; SK-MEL-5 melanoma; NCI-H226 lung; HCT-116 colon; HCT-15 colon; NCI-H460 lung; HS 578T breast; OVCAR-8 ovarian; A498 renal; SNB-75 CNS.
Holding throughout (assay): inhibition of tumour cell growth, NCI panel, 48 h

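Each compound was tested at five concentrations against cells in 96-well plates for 48 hours. GI50 marks 50% less growth. TGI: concentration producing complete growth inhibition.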

As for `CC(=O)/C=C/c1ccc(C#Cc2ccccc2)s1`, the GI50 in the test on UO-31 renal is 14.3 µM; in the test with SK-MEL-5 melanoma it was 11.1 µM; with NCI-H226 lung, 18.4 µM; with HCT-116 colon, 3.67 µM; with HCT-15 colon, 15.6 µM; in the test with NCI-H460 lung, 16.2 µM. The GI50 in the test on HS 578T breast was 23.9 µM; in the test with OVCAR-8 ovarian, 19 µM. The TGI in the test with UO-31 renal was determined as 27.3 µM; with SK-MEL-5 melanoma, 23.1 µM; in the test on NCI-H226 lung it was 36.4 µM; with HCT-116 colon, 14.9 µM; with HCT-15 colon, 29 µM; with NCI-H460 lung, 33.3 µM. Moreover, the TGI is 56.3 µM with HS 578T breast and 57.3 µM with OVCAR-8 ovarian.

With `NC(N)=NCCCCCNc1noc(Cc2c[nH]c3cc(Br)ccc23)n1`, the GI50 in the test with UO-31 renal is 20.2 µM; in the test on SK-MEL-5 melanoma it was 4.52 µM; with A498 renal, over 100 µM; with NCI-H226 lung, 13.6 µM; in the test on HCT-116 colon, 9.78 µM; in the test on HCT-15 colon, 60.5 µM. Moreover, the GI50 with NCI-H460 lung was 12.4 µM; in the test on HS 578T breast it was 9.08 µM; with OVCAR-8 ovarian it was 10.4 µM. Besides, the TGI is over 100 µM in the test on UO-31 renal; 16.2 µM in the test with SK-MEL-5 melanoma; over 100 µM in the test with A498 renal; 46.9 µM with NCI-H226 lung; 37 µM with HCT-116 colon; over 100 µM in the test on HCT-15 colon. Besides, the TGI is 43.3 µM with NCI-H460 lung, 90.2 µM in the test on HS 578T breast and over 100 µM with OVCAR-8 ovarian.

As to `COc1ccc2c(O)cc3c(c2c1)[C@H](CCl)CN3C(=O)c1cc2cc(NC(=O)CCN3CCOCC3)ccc2[se]1`, the GI50 with UO-31 renal, in the test on SK-MEL-5 melanoma, in the test on A498 renal, with NCI-H226 lung, with HCT-116 colon and with HCT-15 colon was under 0.001 µM throughout. The GI50 in the test on NCI-H460 lung, in the test with SNB-75 CNS and with OVCAR-8 ovarian was under 0.001 µM in each case. Besides, the TGI was under 0.001 µM in the test with UO-31 renal; under 0.001 µM in the test with SK-MEL-5 melanoma; under 0.001 µM in the test with A498 renal; 0.00163 µM with NCI-H226 lung; over 3.25 µM in the test on HCT-116 colon; 1.09 µM with NCI-H460 lung. The TGI was found to be 0.00156 µM in the test with SNB-75 CNS and 0.0843 µM in the test with OVCAR-8 ovarian.

Consider `Nc1ccn(C2(CO)C=C(CO)C(O)C2O)c(=O)n1` (centres undefined), for which the TGI in the test on UO-31 renal, in the test with SK-MEL-5 melanoma, with A498 renal, with NCI-H226 lung, with HCT-116 colon and in the test on HCT-15 colon was over 25.8 µM in each case. Also, the TGI with NCI-H460 lung, in the test with SNB-75 CNS and in the test on OVCAR-8 ovarian was over 25.8 µM throughout.

Consider `Cc1ccc(S(=O)(=O)NCCNc2nccc(-c3c(-c4ccc(F)cc4)nc4sccn34)n2)cc1`, for which the GI50 was 2.38 µM with UO-31 renal; 3.52 µM in the test with SK-MEL-5 melanoma; 2.33 µM with A498 renal; 5.14 µM with NCI-H226 lung; 3.88 µM in the test on HCT-116 colon; 3.5 µM with NCI-H460 lung. Further, the results for the GI50 in the test with SNB-75 CNS, in the test with HS 578T breast and in the test with OVCAR-8 ovarian were 2.65 µM, 7.7 µM and 5 µM, respectively. Also, the TGI is over 100 µM in the test on UO-31 renal; over 100 µM in the test on SK-MEL-5 melanoma; 14.4 µM in the test on A498 renal; 97.3 µM in the test on NCI-H226 lung; over 100 µM in the test on HCT-116 colon; over 100 µM with NCI-H460 lung. Also, the TGI turned out to be 15 µM with SNB-75 CNS, 75.5 µM with HS 578T breast and 53.8 µM in the test with OVCAR-8 ovarian.

For `COc1ccc(-c2oc3cc(O)c(OC)c(O)c3c(=O)c2OC)cc1O`, the GI50 is 0.0786 µM in the test with SK-MEL-5 melanoma; 0.21 µM in the test with A498 renal; 2.5 µM with NCI-H226 lung; 0.0762 µM with HCT-116 colon; 0.0928 µM in the test on HCT-15 colon; 0.138 µM with NCI-H460 lung. The GI50 in the test with HS 578T breast was 0.037 µM; in the test on OVCAR-8 ovarian it was 0.375 µM. Also, the TGI was 2.67 µM in the test on SK-MEL-5 melanoma; 0.801 µM in the test on A498 renal; over 100 µM in the test with NCI-H226 lung; 6.56 µM in the test with HCT-116 colon; over 100 µM with HCT-15 colon; 4.34 µM in the test with NCI-H460 lung. Moreover, the TGI is 0.715 µM in the test with HS 578T breast and over 100 µM in the test on OVCAR-8 ovarian.

On to `CCOC(=O)c1c[nH]c2oc(/C=N/N3CC(CN4CCOCC4)OC3=O)cc2c1=O` (centres undefined), for which the TGI in the test with UO-31 renal, with SK-MEL-5 melanoma, in the test on NCI-H226 lung, in the test on HCT-116 colon, in the test with HCT-15 colon and in the test on NCI-H460 lung was over 100 µM each time. Moreover, the TGI with SNB-75 CNS, in the test on HS 578T breast and in the test with OVCAR-8 ovarian was over 100 µM throughout.

As to `O=C(Nc1ccc(CO)cc1)c1coc2ccccc2c1=O`, the GI50 in the test on UO-31 renal, in the test with SK-MEL-5 melanoma, in the test on NCI-H226 lung, in the test with HCT-116 colon, in the test with HCT-15 colon and with NCI-H460 lung was over 100 µM in each case. For the same compound, the figures for the GI50 in the test with SNB-75 CNS, in the test with HS 578T breast and with OVCAR-8 ovarian were over 100 µM, 16.2 µM and over 100 µM, respectively. Besides, the TGI with UO-31 renal, in the test with SK-MEL-5 melanoma, with NCI-H226 lung, in the test on HCT-116 colon, in the test on HCT-15 colon and in the test with NCI-H460 lung was over 100 µM each time. Besides, the TGI is over 100 µM in the test with SNB-75 CNS, 78.1 µM in the test with HS 578T breast and over 100 µM in the test on OVCAR-8 ovarian.

Consider `O=C(CSC(c1ccccc1)c1ccccc1)N/N=C/c1ccc(Cl)cc1Cl`, for which the GI50 with UO-31 renal was 18.8 µM; with SK-MEL-5 melanoma, 18.1 µM; in the test with A498 renal, 25.6 µM; with NCI-H226 lung, 32.6 µM; in the test on HCT-116 colon it was 18.5 µM; with HCT-15 colon, 37.6 µM. Moreover, the GI50 was 20.1 µM in the test with NCI-H460 lung, 34.8 µM with HS 578T breast and 37.9 µM with OVCAR-8 ovarian. The TGI is 68 µM in the test with UO-31 renal; 32.7 µM in the test on SK-MEL-5 melanoma; 52.1 µM in the test with A498 renal; over 100 µM with NCI-H226 lung; 44.4 µM in the test on HCT-116 colon; over 100 µM in the test with HCT-15 colon. The TGI in the test on NCI-H460 lung is 49.8 µM; in the test with HS 578T breast, over 100 µM; in the test with OVCAR-8 ovarian it was over 100 µM.
